Source: patent US20040149200A1, “Crystals of an oligosaccharides and process for preparation thereof” (priority 2001, published 2004)

Assay: Storage stability of Oligosaccharide Crystals (I) and freeze-dried Oligosaccharide (I) powders (residual rate by HPLC)
Type: physicochemical
Conditions: 105° C. in the atmosphere under ordinary pressure
Experimental: The storage stability of Oligosaccharide Crystals (I) obtained in Examples 1 to 3 and freeze-dried Oligosaccharide (I) powders obtained in Reference Examples 1 to 3 was examined by keeping them at 105° C. in the atmosphere under ordinary pressure for 20 days and measuring the residual rate of Oligosaccharides (I).
The residual rate of Oligosaccharides (I) in the samples was measured by high performance liquid chromatography (HPLC) and expressed in terms of HPLC purity (%)
Measurement conditions for HPLC are as follows.
Analyzer: product of Dionex Corporation
Column temperature: 30° C.
Mobile phase: 10-100% aqueous solution of NaOH
(500 mmol/L) (Gradient elution in 11 minutes)
Detection: electrochemical detection (PAD method)

SMILES	Residual rate of oligosaccharides: HPLC purity (%) (days that passed: 0)	Residual rate of oligosaccharides: HPLC purity (%) (days that passed: 1)	Residual rate of oligosaccharides: HPLC purity (%) (days that passed: 4)	Residual rate of oligosaccharides: HPLC purity (%) (days that passed: 7)	Residual rate of oligosaccharides: HPLC purity (%) (days that passed: 20)
CC(=O)N[C@H]1[C@H](O[C@H]2[C@@H](O)[C@@H](CO)O[C@@H](O[C@H]3[C@H](O)[C@@H](O)C(O)O[C@@H]3CO)[C@@H]2O)O[C@H](CO)[C@@H](O)[C@@H]1O (stereo partly drawn) [Freeze-dried GlcNAcβ1, 3Gal-β1, 4Glc powders] [GlcNAcβ1,3Galβ1,4Glc]	99.8%	99.7%	97.0%	98.8%	93.8%
CC(=O)N[C@H]1[C@H](O[C@H]2[C@@H](O)[C@@H](CO)O[C@@H](O[C@H]3[C@H](O)[C@@H](O)C(O)O[C@@H]3CO)[C@@H]2O)O[C@H](CO)[C@@H](O[C@@H]2O[C@H](CO)[C@H](O)[C@H](O[C@@H]3O[C@H](CO)[C@@H](O)[C@H](O)[C@H]3NC(C)=O)[C@H]2O)[C@@H]1O (stereo partly drawn) [Freeze-dried GlcNAcβ1, 3Gal-β1, 4GlcNAcβ1, 3Galβ1, 4Glc powd] [GlcNAcβ1,3Galβ1,4GlcNAcβ1,3Galβ1,4Glc]	98.6%	98.2%	97.4%	95.4%	85.2%
CC(=O)N[C@H]1[C@H](O[C@H]2[C@@H](O)[C@@H](CO)O[C@@H](O[C@H]3[C@H](O)[C@@H](O)C(O)O[C@@H]3CO)[C@@H]2O)O[C@H](CO)[C@@H](O[C@@H]2O[C@H](CO)[C@H](O)[C@H](O[C@@H]3O[C@H](CO)[C@@H](O)[C@H](O)[C@H]3NC(C)=O)[C@H]2O)[C@@H]1O (stereo partly drawn) [Crystals No. 3, GlcNAcβ1, 3Galβ1, 4GlcNAcβ1, 3Galβ1, 4Glc]	98.8%	99.3%	99.0%	99.0%	99.3%
CC(=O)N[C@H]1[C@H](O[C@H]2[C@@H](O)[C@@H](CO)O[C@@H](O[C@H]3[C@H](O)[C@@H](O)C(O)O[C@@H]3CO)[C@@H]2O)O[C@H](CO)[C@@H](O)[C@@H]1O (stereo partly drawn) [Crystals No. 1, GlcNAcβ1, 3Galβ1, 4Glc]	98.0%	99.7%	99.7%	99.7%	98.9%

Second part, the molecule after the results:

Residual rate of oligosaccharides: HPLC purity (%) (days that passed: 0)	Residual rate of oligosaccharides: HPLC purity (%) (days that passed: 1)	Residual rate of oligosaccharides: HPLC purity (%) (days that passed: 4)	Residual rate of oligosaccharides: HPLC purity (%) (days that passed: 7)	Residual rate of oligosaccharides: HPLC purity (%) (days that passed: 20)	SMILES
99.3%	98.6%	97.6%	96.2%	90.9%	CC(=O)N[C@H]1[C@H](O[C@H]2[C@@H](O)[C@@H](CO)O[C@@H](O[C@H]3[C@H](O)[C@@H](O)C(O)O[C@@H]3CO)[C@@H]2O)O[C@H](CO)[C@@H](O[C@@H]2O[C@H](CO)[C@H](O)[C@H](O)[C@H]2O)[C@@H]1O (stereo partly drawn) [Freeze-dried Galβ1, 4GlcNAc-β1, 3Galβ1, 4Glc powders] [Galβ1,4GlcNAcβ1,3Galβ1,4Glc]
99.3%	99.0%	99.2%	99.0%	98.8%	CC(=O)N[C@H]1[C@H](O[C@H]2[C@@H](O)[C@@H](CO)O[C@@H](O[C@H]3[C@H](O)[C@@H](O)C(O)O[C@@H]3CO)[C@@H]2O)O[C@H](CO)[C@@H](O[C@@H]2O[C@H](CO)[C@H](O)[C@H](O)[C@H]2O)[C@@H]1O (stereo partly drawn) [Crystals No. 2, Galβ1, 4GlcNAcβ1, 3Galβ1, 4Glc]
